Assay results from US8192962B2, “Processes for detecting toxic substances” (Daikin Industries, Ltd., priority 2001, dated 2012).

System: Metabolism protein genes
Assay: DNA chip mRNA expression in yeast, metabolism protein genes (Table 7)
Type: cell-based, Saccharomyces cerevisiae S288C
Procedure, shortened: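 Measured as treated-to-untreated fluorescence ratio on a full-genome yeast DNA chip. Cells (S288C, YPD, 25° C.) were exposed in log phase for two hours to one chemical, dosed to curb growth without killing.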

[Cl][Pb][Cl] [(4), PbCl2]
The level of expressed mRNA in the presence of chemical substance/The level of expressed mRNA in the absence of chemical substance (yeast gene YJR155W): 2.5 | The level of expressed mRNA in the presence of chemical substance/The level of expressed mRNA in the absence of chemical substance (yeast gene YKL035W): 1.2 | level of expressed mRNA in the presence/in the absence of chemical substance (yeast gene YKL060C): 1.0 | The level of expressed mRNA in the presence of chemical substance/The level of expressed mRNA in the absence of chemical substance (yeast gene YKL091C): 2.6 | The level of expressed mRNA in the presence of chemical substance/The level of expressed mRNA in the absence of chemical substance (yeast gene YKL104C): 1.2 | level of expressed mRNA in the presence/in the absence of chemical substance (yeast gene YKL148C): 0.7 | The level of expressed mRNA in the presence of chemical substance/The level of expressed mRNA in the absence of chemical substance (yeast gene YKL152C): 0.9 | level of expressed mRNA in the presence/in the absence of chemical substance (yeast gene YKL157W): 1.3 | The level of expressed mRNA in the presence of chemical substance/The level of expressed mRNA in the absence of chemical substance (yeast gene YKL213C): 1.3 | The level of expressed mRNA in the presence of chemical substance/The level of expressed mRNA in the absence of chemical substance (yeast gene YKL215C): 0.8 | level of expressed mRNA in the presence/in the absence of chemical substance (yeast gene YKR034W): 4.7 | The level of expressed mRNA in the presence of chemical substance/The level of expressed mRNA in the absence of chemical substance (yeast gene YLL058W): 0.9 | level of expressed mRNA in the presence/in the absence of chemical substance (yeast gene YLR006C): 6.2 | level of expressed mRNA in the presence/in the absence of chemical substance (yeast gene YLR044C): 0.9 | level of expressed mRNA in the presence/in the absence of chemical substance (yeast gene YLR056W): 0.8 | level of expressed mRNA in the presence/in the absence of chemical substance (yeast gene YLR058C): 2.6 | level of expressed mRNA in the presence/in the absence of chemical substance (yeast gene YLR081W): 3.6 | level of expressed mRNA in the presence/in the absence of chemical substance (yeast gene YLR089C): 0.9 | The level of expressed mRNA in the presence of chemical substance/The level of expressed mRNA in the absence of chemical substance (yeast gene YLR180W): 1.0 | The level of expressed mRNA in the presence of chemical substance/The level of expressed mRNA in the absence of chemical substance (yeast gene YLR273C): 2.4 | level of expressed mRNA in the presence/in the absence of chemical substance (yeast gene YLR284C): 1.9 | The level of expressed mRNA in the presence of chemical substance/The level of expressed mRNA in the absence of chemical substance (yeast gene YLR299W): 1.3 | The level of expressed mRNA in the presence of chemical substance/The level of expressed mRNA in the absence of chemical substance (yeast gene YLR300W): 1.0 | level of expressed mRNA in the presence/in the absence of chemical substance (yeast gene YLR304C): 0.7 | The level of expressed mRNA in the presence of chemical substance/The level of expressed mRNA in the absence of chemical substance (yeast gene YLR307W): 3.3 | The level of expressed mRNA in the presence of chemical substance/The level of expressed mRNA in the absence of chemical substance (yeast gene YLR348C): 1.2 | level of expressed mRNA in the presence/in the absence of chemical substance (yeast gene YLR354C): 1.5 | level of expressed mRNA in the presence/in the absence of chemical substance (yeast gene YLR372W): 0.8 | level of expressed mRNA in the presence/in the absence of chemical substance (yeast gene YML022W): 1.1 | The level of expressed mRNA in the presence of chemical substance/The level of expressed mRNA in the absence of chemical substance (yeast gene YML054C): 3.4 | The level of expressed mRNA in the presence of chemical substance/The level of expressed mRNA in the absence of chemical substance (yeast gene YML070W): 1.9 | The level of expressed mRNA in the presence of chemical substance/The level of expressed mRNA in the absence of chemical substance (yeast gene YML100W): 1.4 | The level of expressed mRNA in the presence of chemical substance/The level of expressed mRNA in the absence of chemical substance (yeast gene YMR008C): 1.0 | level of expressed mRNA in the presence/in the absence of chemical substance (yeast gene YMR011W): 5.5 | level of expressed mRNA in the presence/in the absence of chemical substance (yeast gene YMR015C): 0.9 | The level of expressed mRNA in the presence of chemical substance/The level of expressed mRNA in the absence of chemical substance (yeast gene YMR020W): 1.7 | level of expressed mRNA in the presence/in the absence of chemical substance (yeast gene YMR083W): 1.1 | The level of expressed mRNA in the presence of chemical substance/The level of expressed mRNA in the absence of chemical substance (yeast gene YMR105C): 4.2 | The level of expressed mRNA in the presence of chemical substance/The level of expressed mRNA in the absence of chemical substance (yeast gene YMR189W): 2.8 | level of expressed mRNA in the presence/in the absence of chemical substance (yeast gene YMR205C): 0.8 | level of expressed mRNA in the presence/in the absence of chemical substance (yeast gene YMR261C): 0.8 | The level of expressed mRNA in the presence of chemical substance/The level of expressed mRNA in the absence of chemical substance (yeast gene YMR271C): 2.0 | The level of expressed mRNA in the presence of chemical substance/The level of expressed mRNA in the absence of chemical substance (yeast gene YMR296C): 2.6 | level of expressed mRNA in the presence/in the absence of chemical substance (yeast gene YMR323W): 1.1 | The level of expressed mRNA in the presence of chemical substance/The level of expressed mRNA in the absence of chemical substance (yeast gene YNL012W): 0.8 | level of expressed mRNA in the presence/in the absence of chemical substance (yeast gene YNL025C): 12.8 | The level of expressed mRNA in the presence of chemical substance/The level of expressed mRNA in the absence of chemical substance (yeast gene YNL045W): 1.3 | The level of expressed mRNA in the presence of chemical substance/The level of expressed mRNA in the absence of chemical substance (yeast gene YNL104C): 0.9 | The level of expressed mRNA in the presence of chemical substance/The level of expressed mRNA in the absence of chemical substance (yeast gene YNL106C): 1.5 | The level of expressed mRNA in the presence of chemical substance/The level of expressed mRNA in the absence of chemical substance (yeast gene YNL169C): 1.2 | level of expressed mRNA in the presence/in the absence of chemical substance (yeast gene YNL192W): 1.6 | The level of expressed mRNA in the presence of chemical substance/The level of expressed mRNA in the absence of chemical substance (yeast gene YNL231C): 0.5 | The level of expressed mRNA in the presence of chemical substance/The level of expressed mRNA in the absence of chemical substance (yeast gene YNL322C): 0.8 | The level of expressed mRNA in the presence of chemical substance/The level of expressed mRNA in the absence of chemical substance (yeast gene YNL331C): 1.0 | The level of expressed mRNA in the presence of chemical substance/The level of expressed mRNA in the absence of chemical substance (yeast gene YNL332W): 2.0 | The level of expressed mRNA in the presence of chemical substance/The level of expressed mRNA in the absence of chemical substance (yeast gene YNR019W): 1.2 | The level of expressed mRNA in the presence of chemical substance/The level of expressed mRNA in the absence of chemical substance (yeast gene YNR033W): 1.0 | The level of expressed mRNA in the presence of chemical substance/The level of expressed mRNA in the absence of chemical substance (yeast gene YNR059W): 1.4 | The level of expressed mRNA in the presence of chemical substance/The level of expressed mRNA in the absence of chemical substance (yeast gene YOL058W): 0.9 | level of expressed mRNA in the presence/in the absence of chemical substance (yeast gene YOL086C): 1.1 | level of expressed mRNA in the presence/in the absence of chemical substance (yeast gene YOL108C): 1.9 | level of expressed mRNA in the presence/in the absence of chemical substance (yeast gene YOL116W): 2.8 | The level of expressed mRNA in the presence of chemical substance/The level of expressed mRNA in the absence of chemical substance (yeast gene YOL126C): 1.6 | The level of expressed mRNA in the presence of chemical substance/The level of expressed mRNA in the absence of chemical substance (yeast gene YOL153C): 3.9 | level of expressed mRNA in the presence/in the absence of chemical substance (yeast gene YOL156W): 1.1 | The level of expressed mRNA in the presence of chemical substance/The level of expressed mRNA in the absence of chemical substance (yeast gene YOL165C): 0.9 | level of expressed mRNA in the presence/in the absence of chemical substance (yeast gene YOR002W): 0.9 | level of expressed mRNA in the presence/in the absence of chemical substance (yeast gene YOR085W): 1.0 | The level of expressed mRNA in the presence of chemical substance/The level of expressed mRNA in the absence of chemical substance (yeast gene YOR099W): 1.3 | level of expressed mRNA in the presence/in the absence of chemical substance (yeast gene YOR103C): 1.8 | level of expressed mRNA in the presence/in the absence of chemical substance (yeast gene YOR108W): 0.6 | level of expressed mRNA in the presence/in the absence of chemical substance (yeast gene YOR128C): 2.1 | The level of expressed mRNA in the presence of chemical substance/The level of expressed mRNA in the absence of chemical substance (yeast gene YOR130C): 1.0 | level of expressed mRNA in the presence/in the absence of chemical substance (yeast gene YOR142W): 1.0 | level of expressed mRNA in the presence/in the absence of chemical substance (yeast gene YOR176W): 0.9 | level of expressed mRNA in the presence/in the absence of chemical substance (yeast gene YOR178C): 2.3 | level of expressed mRNA in the presence/in the absence of chemical substance (yeast gene YOR251C): 1.8 | The level of expressed mRNA in the presence of chemical substance/The level of expressed mRNA in the absence of chemical substance (yeast gene YOR336W): 1.0 | The level of expressed mRNA in the presence of chemical substance/The level of expressed mRNA in the absence of chemical substance (yeast gene YOR347C): 2.2 | level of expressed mRNA in the presence/in the absence of chemical substance (yeast gene YOR348C): 2.0 | The level of expressed mRNA in the presence of chemical substance/The level of expressed mRNA in the absence of chemical substance (yeast gene YPL017C): 1.0 | level of expressed mRNA in the presence/in the absence of chemical substance (yeast gene YPL028W): 0.9 | level of expressed mRNA in the presence/in the absence of chemical substance (yeast gene YPL057C): 3.1 | level of expressed mRNA in the presence/in the absence of chemical substance (yeast gene YPL135W): 1.2 | level of expressed mRNA in the presence/in the absence of chemical substance (yeast gene YPL148C): 2.3 | The level of expressed mRNA in the presence of chemical substance/The level of expressed mRNA in the absence of chemical substance (yeast gene YPR026W): 1.3 | level of expressed mRNA in the presence/in the absence of chemical substance (yeast gene YPR113W): 1.3 | level of expressed mRNA in the presence/in the absence of chemical substance (yeast gene YPR165W): 1.0 | The level of expressed mRNA in the presence of chemical substance/The level of expressed mRNA in the absence of chemical substance (yeast gene YPR167C): 0.8 | level of expressed mRNA in the presence/in the absence of chemical substance (yeast gene YPR183W): 0.8
